Measured values: the supplement of paper PMC4862054

Legend:
Experiment in all cases: normalised response (% of control), CellTox Green; higher = less cell death (100 = DMSO, 0 = benzethonium chloride kill control)
Conditions in all cases: incubation time: 72 h
HCC1937 = test system: HCC1937
Summary of the method: (§1)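 Every value is a normalised signal taken at one concentration of a dilution series. Compound was placed in 384-well plates at 5 concentrations in 10-fold steps over a compound-specific 10,000-fold range, and 20 µl of breast cancer cell suspension was seeded onto it. After 72 h, CellTox Green fluorescence (485/520 nm) was measured first and CellTiter-Glo luminescence second, following 10 min at room temperature. Each plate was scaled to 0.1 % DMSO (100) and a positive kill control (0).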

BT-549 = test system: BT-549
Summary of the method: as §1

MDA-MB-468 = test system: MDA-MB-468
Summary of the method: as §1

HCC1143 = test system: HCC1143
Summary of the method: as §1

CAL-120 = test system: CAL-120
Summary of the method: as §1

BT-474 = test system: BT-474
Summary of the method: as §1

DU-4475 = test system: DU-4475
Summary of the method: as §1

HCC1599 = test system: HCC1599
Summary of the method: as §1

CAL-148 = test system: CAL-148
Summary of the method: as §1

MCF-10A = test system: MCF-10A
Summary of the method: as §1

CAL-51 = test system: CAL-51
Summary of the method: as §1

MDA-MB-231 = test system: MDA-MB-231
Summary of the method: as §1

MDA-MB-453 = test system: MDA-MB-453
Summary of the method: as §1

MFM-223 = test system: MFM-223
Summary of the method: as §1

HDQ-P1 = test system: HDQ-P1
Summary of the method: as §1

MDA-MB-436 = test system: MDA-MB-436
Summary of the method: as §1

Hs578T = test system: Hs578T
Summary of the method: as §1

CAL-85-1 = test system: CAL-85-1
Summary of the method: as §1

Row | Structure (SMILES) | normalised response (HCC1937) | normalised response (BT-549) | normalised response (MDA-MB-468) | normalised response (HCC1143) | normalised response (CAL-120) | normalised response (BT-474) | normalised response (DU-4475) | normalised response (HCC1599) | normalised response (CAL-148) | normalised response (MCF-10A) | normalised response (CAL-51) | normalised response (MDA-MB-231) | normalised response (MDA-MB-453) | normalised response (MFM-223) | normalised response (HDQ-P1) | normalised response (MDA-MB-436) | normalised response (Hs578T) | normalised response (CAL-85-1)
1 | COc1ncc(-c2ccc3nccc(-c4ccnnc4)c3c2)cc1NS(=O)(=O)c1ccc(F)cc1F (100 nM) | 90.5% | 94.8% | 89.5% | 110% | 102% | 69.1% | 99.6% | 106% | 67% | 97.7% | 70% | 91.2% | 95% | 76.5% | 86% | 93.5% | 85.2% | 99.1%
2 | COc1ncc(-c2ccc3nccc(-c4ccnnc4)c3c2)cc1NS(=O)(=O)c1ccc(F)cc1F (1000 nM) | 7.68% | 70.9% | -111% | 107% | 102% | 36.8% | 83.9% | 88.6% | 45% | 73.1% | 46.1% | 64.3% | 73.4% | 78.7% | 78.8% | 104% | 35.8% | 52.1%
3 | C[C@@]1(C(=O)Nc2ccc(F)nc2)CCCN1c1nc(Nc2cc(C3CC3)n[nH]2)c2cccn2n1 (1000 nM) | 93.8% | 104% | 52.5% | 68.5% | 98.1% | 97.7% | 90.6% | 97.6% | 88.8% | 80.4% | 49.5% | 76.2% | 104% | 76.7% | 82.1% | 90.8% | 110% | 95%
4 | C[C@@]1(C(=O)Nc2ccc(F)nc2)CCCN1c1nc(Nc2cc(C3CC3)n[nH]2)c2cccn2n1 (10000 nM) | 104% | 65.3% | 49.8% | -57.9% | 26.9% | 95.3% | 90.2% | 90.1% | 59.1% | 25.8% | 18.7% | 49.8% | 109% | 71.2% | 34.9% | 90.4% | 82.1% | 67.8%
5 | COc1c(C)cnc(Cn2cnc3c(Cl)nc(N)nc32)c1C [BIIB021] (1000 nM) | 108% | 139% | 135% | 90.5% | 95.5% | 77.3% | 68.5% | 107% | 26.9% | 1.93% | 71.2% | 71.8% | 102% | 99.3% | 90.4% | 80.9% | 63.4% | 71.3%
6 | COc1c(C)cnc(Cn2cnc3c(Cl)nc(N)nc32)c1C [BIIB021] (10000 nM) | 107% | 130% | 96.8% | 126% | 94.9% | 49.4% | 80.3% | 113% | 49.2% | 52.8% | 58.2% | 48.7% | 93.5% | 93.4% | 40.1% | 106% | 89.7% | 39%
7 | CC(C)C[C@H](NC(=O)[C@H](Cc1ccccc1)NC(=O)c1cnccn1)B(O)O [Bortezomib] (100 nM) | -5.94% | 55.3% | -55.4% | 83.5% | 35.5% | 67.6% | 89.7% | 87.5% | -26.8% | 74% | -29% | -41.1% | 92.7% | 39.2% | 9.79% | 28.8% | 15.4% | -7.21%
8 | CC(C)C[C@H](NC(=O)[C@H](Cc1ccccc1)NC(=O)c1cnccn1)B(O)O [Bortezomib] (1000 nM) | 25.3% | 43.7% | -84% | 27.3% | 14.2% | 59.7% | 76.1% | 81.6% | 38% | 15.3% | 15.4% | -42.8% | 70.9% | 53.7% | 9.5% | 6.1% | 39.2% | -48%
9 | CS(=O)(=O)OCCCCOS(C)(=O)=O [Busulfan] (10000 nM) | 106% | 108% | 96.5% | 121% | 103% | 101% | 102% | 82% | 106% | 104% | 113% | 108% | 103% | 97.1% | 95.2% | 74% | 94.5% | 103%
10 | C#Cc1cccc(Nc2ncnc3cc(OC)c(OCCCCCCC(=O)NO)cc23)c1 [CUDC-101] (1000 nM) | 113% | 142% | 35.1% | 85.1% | 90.9% | 83.7% | 81.3% | 82.2% | 74.4% | 100% | 86.1% | 49.2% | 65.4% | 85% | 101% | 72.7% | 98.8% | -33%
11 | C#Cc1cccc(Nc2ncnc3cc(OC)c(OCCCCCCC(=O)NO)cc23)c1 [CUDC-101] (10000 nM) | 97.7% | 108% | -22.4% | 91.9% | 29.1% | 10.6% | 82.4% | 79.8% | -3.26% | 48.6% | 4.75% | 25.8% | 83.7% | 36.9% | 84.6% | 57.5% | 29.1% | -59%
12 | COc1ccc(C2=N[C@@H](c3ccc(Cl)cc3)[C@@H](c3ccc(Cl)cc3)N2C(=O)N2CCNC(=O)C2)c(OC(C)C)c1 [Nutlin-3] (1000 nM) | 115% | 116% | 108% | 94.2% | 102% | 100% | 100% | 99.6% | 102% | 84% |  | 104% | 109% | 100% | 112% | 92.7% | 61.6% | 108%
